Measurements as given in patent publication US5212286A, “Atrial Natriuretic/vasodilator peptide compounds” (Scios Nova Inc., priority 1986, dated 1993).
Positions of bridges follow the written chain, without caps; N, C: chain ends. Residues, ends and D or L forms follow the SMILES beside them.

How the values were obtained:
[1] = tested on: ANVP receptor sites on cultured bovine vascular smooth muscle cells; assay: Displacement of specific [125I]rANVP(126-150) binding on cultured smooth muscle cells; details: for Ki: concentration of half-maximal displacement
From the text: Specific and saturable binding is a necessary component of a hormone/receptor interaction.
Various concentrations of the peptides described were examined for […]

[2] = tested on: isolated rat kidney; assay: Renal function in the isolated perfused rat kidney
[3] = tested on: precontracted rabbit or rat aortic preparations; assay: Vasorelaxant potency on precontracted aortic rings; details: for IC50: thoracic aortic segments precontracted with histamine or norepinephrine, read-out: IC50 (concentration producing half-maximal relaxation of the precontracted tissue); for vasorelaxant potency in words: precontracted vascular preparations
Procedure: Synthetic ANVP compounds were compared to partially purified (gel filtration step) and purified (HPLC) native ANVP compounds (See FIGS. 3A-D) for their ability to relax histamine-contracted aortic rings. Rings were suspended in 10 ml aerated Kreb's buffer under 1.5 gm passive tension. Rings were precontracted with 5 X 10^-6 M histamine, washed and allowed to return to baseline tension, as described ([…]., supra). Increasing amounts of purified or synthetic ANVP compounds were then added in cumulative fashion. […] The relaxation effects of various ANVP compounds on precontracted rabbit or rat aortic preparations are shown in Table III. | Thoracic aortic segments were precontracted with histamine or | norepinephrine as previously described. Various doses of ANVP compounds | were then added and relaxation of the precontracted state was monitored. | Data are expressed as the concentration of each peptide required to | produce a halfmaximal relaxation of the precontracted tissue (IC50).

[4] = tested on: intact rats; assay: Natriuretic and diuretic effects in intact rats (bolus injection); format: in vivo, rat
Procedure: Synthetic ANVP compounds […] hANVP(127-151) were also found to be natriuretic in the intact rat. These compounds were administered as a bolus injection to Inactin anesthetized rats (100 mg/kg, average weight 399 g) which were maintained on a constant infusion of normal saline at 2.2 ml/hr. […] Data are expressed as mean±SE.

[5] = tested on: anesthetized dogs; assay: Hemodynamic, renal and metabolic effects in anesthetized dogs; format: in vivo, dog
Procedure: Renal and hemodynamic effects have also been measured in anesthetized dogs receiving a constant infusion of the compound rANVP(126-149) (1 μg/kg bolus, followed by 0.1 μg/kg/min for 1 hour). Effects were immediately detected on blood pressure, GFR and urine flow rate and electrolyte excretion and were sustained throughout the infusion. The "experimental" data presented for these parameters in […] are the average values obtained during the infusion. Mean arterial pressure (MAP) fell consistently by 10-15% while GFR rose by 25-35%, in association with a sustained diuresis and natriuresis (Table VIII). The parameters returned to control (i.e. pre-infusion) levels following termination of the infusion.

[6] = dose 1 μg, experimental period E, mean of 3-8 experiments
[7] = experimental peak value, 0.1 to 1.0 μg added to perfusate, mean ± SE of 4 kidneys
[8] = experimental: average during infusion
[9] = recovery, after termination of the infusion

Structure (SMILES): CC[C@H](C)[C@@H]1NC(=O)[C@H](CCCNC(=N)N)NC(=O)[C@H](CC(N)=O)NC(=O)[C@H]([C@@H](C)CC)NC(=O)[C@H](CCCNC(=N)N)NC(=O)CNC(=O)CNC(=O)[C@H](Cc2ccccc2)NC(=O)[C@@H](NC(=O)[C@H](CO)NC(=O)[C@H](CO)NC(=O)[C@@H](N)CCCNC(=N)N)CSSC[C@@H](C(=O)N[C@@H](CC(N)=O)C(=O)N[C@@H](CO)C(=O)N[C@@H](Cc2ccccc2)C(=O)N[C@@H](CCCNC(=N)N)C(=O)N[C@@H](Cc2ccc(O)cc2)C(=O)O)NC(=O)CNC(=O)[C@H](CC(C)C)NC(=O)CNC(=O)[C@H](CO)NC(=O)[C@H](CCC(N)=O)NC(=O)[C@H](C)NC(=O)CNC1=O [[Asn^135]rANVP(126-150)] (H-RSSCFGGRINRIGAQSGLGCNSFRY-OH; disulfide 4-20)
- Ki ([1]; Series B smooth muscle cells): 33.9 nM

Structure (SMILES): CC[C@H](C)[C@@H]1NC(=O)[C@H](CCCNC(=N)N)NC(=O)CNC(=O)CNC(=O)[C@H](Cc2ccccc2)NC(=O)[C@@H](NC(=O)[C@H](CO)NC(=O)[C@H](CO)NC(=O)[C@@H](N)CCCNC(=N)N)CSSC[C@@H](C(=O)N[C@@H](CC(N)=O)C(=O)N[C@@H](CO)C(=O)N[C@@H](Cc2ccccc2)C(=O)N[C@@H](CCCNC(=N)N)C(=O)N[C@@H](Cc2ccc(O)cc2)C(=O)O)NC(=O)CNC(=O)[C@H](CC(C)C)NC(=O)CNC(=O)[C@H](CO)NC(=O)[C@H](CCC(N)=O)NC(=O)[C@H](C)NC(=O)[C@@H](C)NC(=O)[C@H]([C@@H](C)CC)NC(=O)[C@H](CCCNC(=N)N)NC(=O)[C@H](CC(=O)O)NC1=O [[D-Ala^138]rANVP(126-150), H-Arg-Ser-Ser-Cys-Phe-Gly-Gly-Arg-Ile-Asp-Arg-Ile-[D-Ala]-Ala-Gln-Ser-Gly-Leu-Gly-Cys-Asn-Ser-Phe-Arg-Tyr-OH]
- .V (urine flow rate) [2, 6]: 57.5 µL/min
- GFR [2, 6]: 0.54 mL/min
- UNa.V (urinary sodium excretion rate) [2, 6]: 2.53 μEq/min
- IC50 [3]: 3.1 nM
- Ki ([1]; Series A smooth muscle cells): 20 nM

Structure (SMILES): CC[C@H](C)[C@@H]1NC(=O)[C@H](CCCNC(=N)N)NC(=O)[C@H](CC(=O)O)NC(=O)[C@@H](CCSC)NC(=O)[C@H](CCCNC(=N)N)NC(=O)CNC(=O)CNC(=O)[C@H](Cc2ccccc2)NC(=O)[C@@H](NC(=O)[C@H](CO)NC(=O)[C@H](CO)NC(=O)[C@@H](N)CCCNC(=N)N)CSSC[C@@H](C(=O)N[C@@H](CC(N)=O)C(=O)N[C@@H](CO)C(=O)N[C@@H](Cc2ccccc2)C(=O)N[C@@H](CCCNC(=N)N)C(=O)N[C@@H](Cc2ccc(O)cc2)C(=O)O)NC(=O)CNC(=O)[C@H](CC(C)C)NC(=O)CNC(=O)[C@H](CO)NC(=O)[C@H](CCC(N)=O)NC(=O)[C@H](C)NC(=O)CNC1=O [[D-Met^135]hANVP(127-151), H-Arg-Ser-Ser-Cys-Phe-Gly-Arg-[D-Met]-Asp-Arg-Ile-Gly-Ala-Gln-Ser-Gly-Leu-Gly-Cys-Asn-Ser-Phe-Arg-Tyr-OH]
- IC50 [3]: 7.6 nM
- Ki ([1]; Series B smooth muscle cells): 4.27 nM

Structure (SMILES): CC[C@H](C)[C@@H]1NC(=O)[C@H](CCCNC(=N)N)NC(=O)[C@H](CC(=O)O)NC(=O)[C@H](CCSC)NC(=O)[C@H](CCCNC(=N)N)NC(=O)CNC(=O)CNC(=O)[C@H](Cc2ccccc2)NC(=O)[C@@H](NC(=O)[C@H](CO)NC(=O)[C@H](CO)NC(=O)[C@@H](N)CCCNC(=N)N)CSSC[C@@H](C(=O)O)NC(=O)CNC(=O)[C@H](CC(C)C)NC(=O)CNC(=O)[C@H](CO)NC(=O)[C@H](CCC(N)=O)NC(=O)[C@H](C)NC(=O)CNC1=O [hANVP(127-146)] (H-RSSCFGGRMDRIGAQSGLGC-OH; disulfide 4-20)
- vasorelaxant potency in words [3]: substantially diminished potency
- IC50 [3]: 100 nM
- Ki ([1]; Series B smooth muscle cells): 1.82 nM

Structure (SMILES): CC[C@H](C)[C@@H]1NC(=O)[C@H](CCCNC(=N)N)NC(=O)[C@H](CC(=O)O)NC(=O)[C@H](CCSC)NC(=O)[C@H](CCCNC(=N)N)NC(=O)CNC(=O)CNC(=O)[C@H](Cc2ccccc2)NC(=O)[C@@H](NC(=O)[C@H](CO)NC(=O)[C@H](CO)NC(=O)[C@@H](N)CCCNC(=N)N)CSSC[C@@H](C(=O)N[C@@H](CC(N)=O)C(=O)N[C@@H](CO)C(=O)N[C@@H](Cc2ccccc2)C(=O)O)NC(=O)CNC(=O)[C@H](CC(C)C)NC(=O)CNC(=O)[C@H](CO)NC(=O)[C@H](CCC(N)=O)NC(=O)[C@H](C)NC(=O)CNC1=O [hANVP(127-149)] (H-RSSCFGGRMDRIGAQSGLGCNSF-OH; disulfide 4-20)
- Ki ([1]; Series B smooth muscle cells): 2.45 nM

Structure (SMILES): CC[C@H](C)[C@@H]1NC(=O)[C@H](CCCNC(=N)N)NC(=O)[C@H](CC(=O)O)NC(=O)[C@H]([C@@H](C)CC)NC(=O)[C@H](CCCNC(=N)N)NC(=O)CNC(=O)CNC(=O)[C@H](Cc2ccccc2)NC(=O)[C@@H](NC(=O)[C@H](CO)NC(=O)[C@H](CO)NC(=O)[C@@H](N)CCCNC(=N)N)CSSC[C@@H](C(=O)N[C@@H](CC(N)=O)C(=O)N[C@@H](CO)C(N)=O)NC(=O)CNC(=O)[C@H](CC(C)C)NC(=O)CNC(=O)[C@H](CO)NC(=O)[C@H](CCC(N)=O)NC(=O)[C@H](C)NC(=O)CNC1=O [rANVP(126-147)-NH2] (H-RSSCFGGRIDRIGAQSGLGCNS-NH2; disulfide 4-20)
- IC50 [3]: 13 nM
- Ki ([1]; Series B smooth muscle cells): 1.83 nM

Structure (SMILES): CC[C@H](C)[C@@H]1NC(=O)[C@H](CCCNC(=N)N)NC(=O)[C@H](CC(=O)O)NC(=O)[C@H]([C@@H](C)CC)NC(=O)[C@H](CCCNC(=N)N)NC(=O)CNC(=O)CNC(=O)[C@H](Cc2ccccc2)NC(=O)[C@@H](NC(=O)[C@H](CO)NC(=O)[C@H](CO)NC(=O)[C@@H](N)CCCNC(=N)N)CSSC[C@@H](C(=O)N[C@@H](CC(N)=O)C(=O)N[C@@H](CO)C(=O)N[C@@H](Cc2ccccc2)C(=O)O)NC(=O)CNC(=O)[C@H](CC(C)C)NC(=O)CNC(=O)[C@H](CO)NC(=O)[C@H](CCC(N)=O)NC(=O)[C@H](C)NC(=O)CNC1=O [rANVP(126-148)] (H-RSSCFGGRIDRIGAQSGLGCNSF-OH; disulfide 4-20)
- vasorelaxant potency in words [3]: substantially less potent than rANVP(126-150)
- IC50 [3]: 7.5 nM
- binding activity in smooth muscle cells relative to rANVP(126-150), in words [1]: comparable binding activity to rANVP(126-150)
- Ki ([1]; Series B smooth muscle cells): 1.32 nM
- Peak Na+ Excr. ([4]; dose 455 pmol/kg): 56.3 ± 8 µmol/min
- Peak Urine Vol. ([4]; dose 455 pmol/kg): 6.8 ± 0.5 µL/min

Structure (SMILES): CC[C@H](C)[C@@H]1NC(=O)[C@H](CCCNC(=N)N)NC(=O)[C@H](CC(=O)O)NC(=O)[C@H]([C@@H](C)CC)NC(=O)[C@H](CCCNC(=N)N)NC(=O)CNC(=O)CNC(=O)[C@H](Cc2ccccc2)NC(=O)[C@@H](NC(=O)[C@H](CO)NC(=O)[C@H](CO)NC(=O)[C@@H](N)CCCNC(=N)N)CSSC[C@@H](C(=O)N[C@@H](CC(N)=O)C(=O)N[C@@H](CO)C(=O)N[C@@H](Cc2ccccc2)C(=O)N[C@@H](CCCNC(=N)N)C(=O)O)NC(=O)CNC(=O)[C@H](CC(C)C)NC(=O)CNC(=O)[C@H](CO)NC(=O)[C@H](CCC(N)=O)NC(=O)[C@H](C)NC(=O)CNC1=O [rANVP(126-149)] (H-RSSCFGGRIDRIGAQSGLGCNSFR-OH; disulfide 4-20)
- .V (urine flow rate) [2, 7]: 97.6 ± 19.4 µL/min
- FEK (fractional potassium excretion) [2, 7]: 52.1 ± 6.2%
- FENa (fractional sodium excretion) [2, 7]: 6.6 ± 2.0%
- FF (filtration fraction) [2, 7]: 0.021 ± 0.001
- FLNa (filtered load of sodium) [2, 7]: 90.1 ± 5.2 μEq/min
- GFR (glomerular filtration rate) [2, 7]: 0.63 ± 0.03 mL/min
- RVR (renal vascular resistance) [2, 7]: 3.9 ± 0.3 mmHg/ml/min
- TNa (tubular reabsorption of sodium) [2, 7]: 84.2 ± 4.8 μEq/min
- UK .V (urinary potassium excretion rate) [2, 7]: 1.46 ± 0.16 μEq/min
- UNa.V (urinary sodium excretion rate) [2, 7]: 6.01 ± 1.99 μEq/min
- Ki ([1]; Series B smooth muscle cells): 0.89 nM
- natriuretic in the intact rat, in words ([4]; bolus injection, Inactin anesthetized rats): natriuretic
- fall of mean arterial pressure (MAP) ([5]; during infusion): 10-15%
- rise of GFR ([5]; during infusion): 25-35%
- .V (urine flow rate) [5, 8]: 1.06 ± 0.14 mL/min
- FEH2O (fractional water excretion) [5, 8]: 3.4 ± 0.3%
- FEK [5, 8]: 34 ± 6%
- FENa [5, 8]: 4.1 ± 0.5%
- GFR [5, 8]: 32.3 ± 4.1 mL/min
- PA (plasma aldosterone) [5, 8]: 5.4 ± 0.9 ng/100 ml
- PRA (plasma renin activity) [5, 8]: 8.3 ± 1.8 ng/mL/h
- UK .V [5, 8]: 36 ± 6 μEq/min
- UNa .V [5, 8]: 187 ± 35 μEq/min
- MAP (mean arterial pressure) ([5]; experimental: average during infusion, 1 μg/kg bolus then 0.1 μg/kg/min for 1 hour): 122 ± 4 mm Hg
- .V (urine flow rate) [5, 9]: 0.37 ± 0.05 mL/min
- FEH2O (fractional water excretion) [5, 9]: 1.5 ± 0.2%
- FEK [5, 9]: 21 ± 4%
- FENa [5, 9]: 1.9 ± 0.4%
- GFR [5, 9]: 25.4 ± 3.3 mL/min
- MAP (mean arterial pressure) [5, 9]: 136 ± 4 mm Hg
- PA (plasma aldosterone) [5, 9]: 7.0 ± 1.3 ng/100 ml
- PRA (plasma renin activity) [5, 9]: 14 ± 2.5 ng/mL/h
- UK .V [5, 9]: 21 ± 4 μEq/min
- UNa .V [5, 9]: 68 ± 14 μEq/min
